# Data published in patent publication US6995177B1, “HCV NS3 protease inhibitors” (Istituto Di Ricerche Di Biologia Molecolare P Angeletti SPA, priority 1999, dated 2006).
# pIC50: −log10 of the molar value.
# Molecular target: HCV NS3 protease (Hepatitis C virus genotype 1b, UniProt P26662)
# Assay: Microplate protease activity assay
# Type: biochemical, hepatitis C virus (J strain)
# Details: Table I; inhibition of HCV NS3 protease, co-factor Pep4AK, tritiated substrate
# Procedure: Microplate Protease Activity Assay
# The HCV-protease (J strain) was stored until use at −80° C. in 250 mM NaCl, phosphate buffer pH 6.5, 50% glycerol, 0.1% CHAPS. As protease co-factor the peptide Pep4AK (KKKGSVVIVGRIILSGR-NH2), spanning the central hydrophobic core (residues 21–34) of the NS4A protein, with a three-lysine tag at the N-terminus to increase solubility (Bianchi, E. et al., Biochemistry 36, 7890–7897;1997), was used. Pep4AK was stored at −80° C. in DMSO; the tritiated substrate Ac-DEMEECASHLPYK (^3H-Ac)-NH2, and the corresponding cold substrate Ac-DEMEECASHLPYK(Ac)-NH2 were stored at −80° C. in DMSO/DTT.
# The assay was run in Costar polypropylene 96-well plates. The composition of the reaction mixture was as follows (100 μl): • Glycerol 15% • DTT 30 mM • Hepes pH 7,5 50 mM • Triton X-100 0.05% • Protease 10 nM • hot+cold substrate 5 μM (300.000 cpm) • Pep4AK 15 μM
# Test compounds were dissolved—in DMSO (final concentration 10% DMSO)
# Pep4AK was pre-incubated with protease for 5 min prior to addition of substrate mix. In these conditions, the substrate Km was 7±2 μM. Test compounds were added at 8 different concentrations in 8 different wells. Plates were shaken for 30 minutes at room temperature, then an ionic exchange resin (100 μl of 20% Fractogel TSK-DEAE® 650S, Merck) was added to capture unprocessed substrate and plates shaken for another 10 minutes. After allowing the resin to settle by centrifugation, 30 μl of the reaction mix were transferred in a 96-well plate (Picoplate, Packard), admixed with 250 μl of scintillation cocktail Microscint 40, and the radioactivity measured in a scintillation Packard Top Count β-counter.
# IC50 was calculated from the test compound dilution curve, as the concentration of compound giving 50% inhibitions.
# Sequence of HCV NS3 protease (P26662 1027-1206, other chains not shown): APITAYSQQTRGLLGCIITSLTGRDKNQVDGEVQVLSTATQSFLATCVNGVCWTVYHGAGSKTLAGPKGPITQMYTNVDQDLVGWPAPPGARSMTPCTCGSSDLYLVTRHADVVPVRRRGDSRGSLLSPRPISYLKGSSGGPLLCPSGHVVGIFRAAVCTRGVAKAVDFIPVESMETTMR
row,Molecule,pIC50
1,"CC(C)C[C@H](NC(=O)[C@H](CC(=O)O)NC(=O)[C@H](CC1CCCCC1)NC(=O)[C@@H]1CCCC[C@H]1C(=O)O)C(N)=O (single isomer, unassigned) [Example 1, R1R-cyclohexane-1,2-dicarboxylate monoamide of Cha-Asp-Leu-NH2]",4.82
2,"CC(C)C[C@H](NC(=O)[C@H](CC(=O)O)NC(=O)[C@H](CC1CCCCC1)NC(=O)[C@H]1CCCC[C@@H]1C(=O)O)C(N)=O [Example 2, SS-cyclohexane-1,2-dicarboxylate monoamide of Cha-Asp-Leu-NH2]",4.27
3,CCNC(=O)[C@H](CC(C)C)NC(=O)[C@H](CC(=O)O)NC(=O)[C@H](CC1CCCCC1)NC(=O)C1=C(C(=O)O)CCCC1 [Example 4],4.42
4,CC(C)C[C@H](NC(=O)[C@H](CC(=O)O)NC(=O)[C@H](CC1CCCCC1)NC(=O)[C@@H]1CCC[C@H]1C(=O)O)C(N)=O [Example 5],4.22
5,CC(C)C[C@H](NC(=O)[C@H](CC(=O)O)NC(=O)[C@H](CC1CCCCC1)NC(=O)c1ccccc1C(=O)O)C(N)=O [Example 6],4.19
6,CCNC(=O)[C@H](CC(C)C)NC(=O)[C@H](CC(=O)O)NC(=O)[C@H](CC1CCCCC1)NC(=O)c1ccccc1C(=O)O [Example 7],4.19
7,"S,S-cyclohexane-1,2-dicarboxylate monoamide of Cha-Asp-Leu-NHEt [Example 3]",4.49

# Same assay, conditions: Table II; inhibition of HCV NS3 protease, co-factor Pep4AK, tritiated substrate
row,Molecule,pIC50
1,"CC(C)CC(NC(=O)C(CC(=O)O)NC(=O)C(NC(=O)C1CCCCC1C(=O)O)c1cccc(OC(=O)CC(c2ccccc2)c2ccccc2)c1)C(N)=O (single isomer, unassigned) [Example 8]",4.89
2,CC(C)C[C@H](NC(=O)[C@H](CC(=O)O)NC(=O)[C@@H](NC(=O)[C@@H]1CCCC[C@H]1C(=O)O)c1cccc(OC(=O)Cc2cccc3ccccc23)c1)C(N)=O [Example 9],4.66
3,CC(C)C[C@H](NC(=O)[C@H](CC(=O)O)NC(=O)[C@@H](NC(=O)[C@@H]1CCCC[C@H]1C(=O)O)c1cccc(OC(=O)Cc2ccc3ccccc3c2)c1)C(N)=O [Example 10],4.66
4,CC(C)C[C@H](NC(=O)[C@H](CC(=O)O)NC(=O)[C@@H](NC(=O)[C@@H]1CCCC[C@H]1C(=O)O)c1cccc(OC(=O)[C@@H]2CCCC[C@H]2C(=O)O)c1)C(N)=O [Example 11],4.46
5,CC(C)C[C@H](NC(=O)[C@H](CC(=O)O)NC(=O)[C@@H](NC(=O)[C@@H]1CCCC[C@H]1C(=O)O)c1ccc(Cl)cc1)C(N)=O [Example 12],4.43
6,CC(C)C[C@H](NC(=O)[C@H](CC(=O)O)NC(=O)[C@@H](NC(=O)[C@@H]1CCCC[C@H]1C(=O)O)c1ccccc1)C(N)=O [Example 13],4.40
7,CC(C)C[C@H](NC(=O)[C@H](CC(=O)O)NC(=O)[C@@H](NC(=O)[C@@H]1CCCC[C@H]1C(=O)O)c1ccccc1F)C(N)=O [Example 14],4.33
8,CC(C)C[C@H](NC(=O)[C@H](CC(=O)O)NC(=O)[C@@H](NC(=O)[C@@H]1CCCC[C@H]1C(=O)O)c1ccc(Br)cc1)C(N)=O [Example 15],4.59

# Same assay, conditions: Table III; inhibition of HCV NS3 protease, co-factor Pep4AK, tritiated substrate
row,Molecule,pIC50
1,CC(C)C[C@H](NC(=O)[C@H](CCC(=O)O)NC(=O)[C@H](CC1CCCCC1)NC(=O)[C@@H]1CCCC[C@H]1C(=O)O)C(N)=O [Example 16],4.39
2,CC(C)C[C@H](NC(=O)[C@H](CC(=O)O)N(C)C(=O)[C@H](CC1CCCCC1)NC(=O)[C@@H]1CCCC[C@H]1C(=O)O)C(N)=O [Example 17],4.00
3,CC(C)C[C@H](NC(=O)[C@H](CC(=O)O)N(C)C(=O)[C@H](CC1CCCCC1)NC(=O)c1ccccc1C(=O)O)C(N)=O [Example 18],3.94

# Same assay, conditions: Table IV; inhibition of HCV NS3 protease, co-factor Pep4AK, tritiated substrate
row,Molecule,pIC50
1,"O=C(O)CCN(CCC(c1ccccc1)c1ccccc1)C(=O)[C@@H](NC(=O)[C@@H]1CCCC[C@H]1C(=O)O)c1ccccc1 (single isomer, unassigned) [Example 19]",4.85
2,O=C(O)CCN(CCC(c1ccccc1)c1ccccc1)C(=O)[C@H](CC1CCCCC1)NC(=O)[C@@H]1CCCC[C@H]1C(=O)O [Example 20],4.26
3,O=C(O)CCN(CCC(c1ccccc1)c1ccccc1)C(=O)[C@@H](NC(=O)[C@@H]1CCCC[C@H]1C(=O)O)c1ccc(Br)cc1 [Example 21],5.77
4,O=C(O)CCN(CCC(c1ccccc1)c1ccccc1)C(=O)[C@@H](NC(=O)[C@@H]1CCCC[C@H]1C(=O)O)c1ccc(C(F)(F)F)cc1 [Example 22],5.15
5,O=C(O)CCN(CCC(c1ccccc1)c1ccccc1)C(=O)[C@@H](NC(=O)[C@@H]1CCCC[C@H]1C(=O)O)c1ccccc1F [Example 23],5.22
6,CCOC(=O)CCN(CCC(c1ccccc1)c1ccccc1)C(=O)[C@@H](NC(=O)[C@H]1CCCC[C@@H]1C(=O)O)c1ccc(Br)cc1 [Example 24],4.22
7,NC(=O)CCN(CCC(c1ccccc1)c1ccccc1)C(=O)[C@@H](NC(=O)[C@H]1CCCC[C@@H]1C(=O)O)c1ccc(Br)cc1 [Example 25],4.23
8,COc1ccccc1CCN(CCC(=O)O)C(=O)[C@@H](NC(=O)[C@@H]1CCCC[C@H]1C(=O)O)c1ccccc1F [Example 26],4.36
9,COc1cccc(CCN(CCC(=O)O)C(=O)[C@@H](NC(=O)[C@@H]2CCCC[C@H]2C(=O)O)c2ccccc2F)c1 [Example 27],4.18
10,O=C(O)CCN(CCc1ccccc1Cl)C(=O)[C@@H](NC(=O)[C@@H]1CCCC[C@H]1C(=O)O)c1ccccc1F [Example 28],4.15
11,O=C(O)CCN(CC(c1ccccc1)c1ccccc1)C(=O)[C@@H](NC(=O)[C@@H]1CCCC[C@H]1C(=O)O)c1ccccc1 [Example 29],4.41
12,O=C(O)CCN(CCc1ccc(Cl)cc1Cl)C(=O)[C@@H](NC(=O)[C@@H]1CCCC[C@H]1C(=O)O)c1ccccc1 [Example 30],4.31
13,COc1ccc(CCN(CCC(=O)O)C(=O)[C@@H](NC(=O)[C@@H]2CCCC[C@H]2C(=O)O)c2ccccc2)cc1OC [Example 31],3.91
14,O=C(O)CCN(CC(c1ccccc1)c1ccccc1)C(=O)[C@H](CC1CCCCC1)NC(=O)[C@@H]1CCCC[C@H]1C(=O)O [Example 32],3.88
15,O=C(O)CCN(CCc1ccc(Cl)cc1Cl)C(=O)[C@H](CC1CCCCC1)NC(=O)[C@@H]1CCCC[C@H]1C(=O)O [Example 33],3.75
